Laboratory results taken from PubChem BioAssay (NCI).
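Step 1: Grow cells in 96-well plates. Step 2: Expose to compound for 48 hours at 5 concentrations. Step 3: Interpolate endpoints linearly; if unreached, use highest concentration. TGI: concentration producing complete growth inhibition.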

Columns and labels:
Test in all cases: NCI tumour cell line growth inhibition, 48 h
[1] = tested on: A498 renal
[2] = tested on: CCRF-CEM leukemia
[3] = tested on: HCC-2998 colon
[4] = tested on: HCT-15 colon
[5] = tested on: K-562 leukemia
[6] = tested on: MCF7 breast
[7] = tested on: MDA-N
[8] = tested on: SK-OV-3 ovarian
[9] = tested on: SNB-75 CNS

Row | SMILES | TGI [1] | TGI [2] | TGI [3] | TGI [4] | TGI [5] | TGI [6] | TGI [7] | TGI [8] | TGI [9]
1 | COc1ccc2[nH]c(C(=O)N3CC(CCl)c4c3cc(N)c3ccccc43)cc2c1 (centres undefined) | 0.0399 µM | 0.0681 µM | < 0.01 µM | 1.15 µM | > 100 µM | 0.0353 µM | < 0.01 µM | 0.964 µM | –
2 | CN[C@@H](C)[C@@H](O)c1ccccc1 | – | > 10 µM | > 100 µM | > 100 µM | > 100 µM | > 100 µM | > 100 µM | – | > 100 µM
3 | COC(=O)NC(Cc1ccccc1)NC(C)=O (centres undefined) | > 100 µM | > 100 µM | > 100 µM | > 100 µM | > 100 µM | > 100 µM | > 100 µM | > 100 µM | > 100 µM
4 | CCCCCN(CCCCC)CC(C)(C)C(O)c1ccc(OC)c2ccccc12 (centres undefined) | 28.1 µM | > 100 µM | 31.4 µM | 21 µM | 25 µM | 22.5 µM | – | – | 51.9 µM
5 | Cc1cc(N2CCCC2)c([N+](=O)[O-])cc1[N+](=O)[O-] | > 100 µM | > 100 µM | > 100 µM | > 100 µM | > 100 µM | > 100 µM | > 100 µM | > 100 µM | > 100 µM
6 | CC(=O)Oc1cc(OC(C)=O)c2c(C)cc(=O)oc2c1 | > 100 µM | > 100 µM | – | > 100 µM | > 100 µM | > 100 µM | > 100 µM | > 100 µM | > 100 µM
7 | N=c1oc2ccccc2cc1-c1nc2ccccc2c(=O)[nH]1 | – | > 100 µM | > 100 µM | > 100 µM | > 100 µM | > 100 µM | > 100 µM | > 100 µM | 25.3 µM
8 | O=C(O)CCc1ccc2c(c1)CC1(Cc3ccccc3C1)C2 | > 100 µM | > 100 µM | > 100 µM | > 100 µM | – | > 100 µM | > 100 µM | > 100 µM | 96.4 µM
9 | O=[N+]([O-])c1ccc(N2N=C(c3ccc4ccccc4c3O)CC2c2ccc(Cl)cc2)c([N+](=O)[O-])c1 (centres undefined) | > 100 µM | 42.7 µM | > 100 µM | > 100 µM | 52 µM | > 100 µM | 30.8 µM | > 100 µM | > 100 µM
10 | COc1ccc2c(c1)c1nn(CCN3CCCCC3)c3ccc4c(=O)n(CCN(C)C)c(=O)n2c4c13 | 0.119 µM | 0.785 µM | 0.03 µM | 0.0825 µM | 0.6 µM | < 0.0504 µM | 0.117 µM | 2.91 µM | 0.0711 µM
11 | COc1ccc(N=C2C(=Nc3ccc(OC)cc3)N(c3ccc(N(C)C)cc3)C(=S)N2c2ccc(OC)cc2)cc1 | > 100 µM | > 100 µM | > 100 µM | > 100 µM | > 100 µM | > 100 µM | > 100 µM | > 100 µM | > 91.8 µM
12 | CCOC(=O)C(NC(=O)CC)(Nc1ccc(F)c(Cl)c1)C(F)(F)F (centres undefined) | > 100 µM | > 100 µM | > 100 µM | > 100 µM | > 100 µM | > 100 µM | > 100 µM | > 100 µM | > 100 µM
13 | CN(Cc1cnc2nc(N)nc(N)c2n1)c1ccc(C(=O)NC(CCC(=O)NC(CC(P(=O)(O)O)P(=O)(O)O)C(=O)O)C(=O)O)cc1 (centres undefined) | – | – | – | > 100 µM | – | > 100 µM | > 100 µM | > 100 µM | > 100 µM
14 | CCC(=O)/C(=C\I)c1ccccc1 | 32.1 µM | – | – | 3.37 µM | > 100 µM | – | 11.2 µM | 30.2 µM | 3.48 µM
15 | N#CC[N+]1(Cc2ccccn2)CCCC1 | > 100 µM | – | > 100 µM | > 100 µM | > 100 µM | > 100 µM | > 100 µM | > 100 µM | > 100 µM
16 | COC([C@@H](OC(=O)c1ccccc1)[C@H](OC(=O)c1ccccc1)C(O)COC(=O)c1ccccc1)n1cc(C)c(=O)[nH]c1=O (some centres undefined) | – | – | – | > 100 µM | > 100 µM | 52.3 µM | > 100 µM | > 100 µM | 73.8 µM
17 | O=C(O)CNC(=O)c1ccc2cc(C(=O)N3CC(CCl)c4ccc([N+](=O)[O-])cc43)[nH]c2c1 (centres undefined) | – | > 100 µM | – | > 100 µM | – | > 100 µM | > 100 µM | > 100 µM | > 100 µM
18 | O=C(C(Cl)=C(N1CCCCC1)N1CCCCC1)C(Cl)Cl | > 100 µM | > 100 µM | > 100 µM | > 100 µM | > 100 µM | > 100 µM | > 100 µM | > 100 µM | –
